Measured values published in publication PMC10824269 (Journal of the American Chemical Society, 2021).

Biological target: GsTyDC/DDC (Gloriosa superba, UniProt A0A7D5Q853)
Assay type: cell-based
Details: leaves of N. benthamiana

N[C@@H](Cc1ccc(O)c(O)c1)C(=O)O [L-DOPA]
LC-MS, transient expression in N. benthamiana: GsTyDC/DDC is capable of acting on act on either L-Tyr or L-DOPA (Figure S15)
